In patent US20250257060A1, “OXADIAZOLE COMPOUND, PHARMACEUTICAL COMPOSITION COMPRISING SAME, AND USE THEREOF” (SUZHOU GENHOUSE BIO CO., LTD., priority 2022, published 2025):
Where two headings read alike, the source gives them in different places.

What was measured:
[1] = Brain-to-blood drug concentration ratio of mice; type: in vivo; settings: mouse; for Kp at 1 h / Kp at 4 h: brain/plasma
In short: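 Mice (9/group) dosed once IV or PO; orbital blood into K2-EDTA tubes for plasma, with brain homogenate, processed by acetonitrile precipitation (propafenone internal standard) and measured by LC-MS/MS. Ratio taken as brain tissue concentration over plasma concentration at the same time point.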

[2] = tested on: acetylation level of α-tubulin in A375 cells; assay: Assay on acetylation level of α-tubulin, A375 cells; type: cell-based; settings: Homo sapiens, A-375, 6 h
Description: A375/HCT116/HCC827 cells at a logarithmic growth phase were taken, digested with a […] (trypsin), centrifuged, counted, and plated in a 96-well plate at an appropriate cell density (30,000 cells/well) at 100 µL/well, and an appropriate amount of PBS was added around the plate for water sealing. The next day, the cells were treated with the compounds at different concentrations (starting at 100 μM, 5-fold dilution, 9 concentration gradients). After 6 h, the medium was pipetted out and the cells were washed twice with 100 μL of PBST. The cells were then immobilized in 4% paraformaldehyde, and the plate was incubated at room temperature for 20 min. The stationary liquid was discarded and the cells were washed with PBST. 150 μL of special blocking buffer (containing 1% Triton-100) was added to each well for blocking at room temperature for 2 h, and the plate was washed with PBS to remove excess blocking buffer. α-tubulin (DM1A) mouse mAb and acetyl-α-tubulin (Lys40) (D20G3) XP rabbit mAb were diluted at a 1:2000 ratio with a blocking buffer containing 0.033% Triton-100. The dilutions were added to the 96-well plate and the plate was incubated overnight at 4° C. Meanwhile, a blank control group was set. The next day, the plate was washed twice with PBST. […] Fluorescence signals at 700 nm and 800 nm were detected with a Li-COR Odyssey two-color near-infrared laser imager.

[3] = target: HDAC6 (Homo sapiens (Human), UniProt Q9UBN7); assay: HDAC6 enzymatic activity assay; type: biochemical
HDAC6, sequence (Q9UBN7 whole entry): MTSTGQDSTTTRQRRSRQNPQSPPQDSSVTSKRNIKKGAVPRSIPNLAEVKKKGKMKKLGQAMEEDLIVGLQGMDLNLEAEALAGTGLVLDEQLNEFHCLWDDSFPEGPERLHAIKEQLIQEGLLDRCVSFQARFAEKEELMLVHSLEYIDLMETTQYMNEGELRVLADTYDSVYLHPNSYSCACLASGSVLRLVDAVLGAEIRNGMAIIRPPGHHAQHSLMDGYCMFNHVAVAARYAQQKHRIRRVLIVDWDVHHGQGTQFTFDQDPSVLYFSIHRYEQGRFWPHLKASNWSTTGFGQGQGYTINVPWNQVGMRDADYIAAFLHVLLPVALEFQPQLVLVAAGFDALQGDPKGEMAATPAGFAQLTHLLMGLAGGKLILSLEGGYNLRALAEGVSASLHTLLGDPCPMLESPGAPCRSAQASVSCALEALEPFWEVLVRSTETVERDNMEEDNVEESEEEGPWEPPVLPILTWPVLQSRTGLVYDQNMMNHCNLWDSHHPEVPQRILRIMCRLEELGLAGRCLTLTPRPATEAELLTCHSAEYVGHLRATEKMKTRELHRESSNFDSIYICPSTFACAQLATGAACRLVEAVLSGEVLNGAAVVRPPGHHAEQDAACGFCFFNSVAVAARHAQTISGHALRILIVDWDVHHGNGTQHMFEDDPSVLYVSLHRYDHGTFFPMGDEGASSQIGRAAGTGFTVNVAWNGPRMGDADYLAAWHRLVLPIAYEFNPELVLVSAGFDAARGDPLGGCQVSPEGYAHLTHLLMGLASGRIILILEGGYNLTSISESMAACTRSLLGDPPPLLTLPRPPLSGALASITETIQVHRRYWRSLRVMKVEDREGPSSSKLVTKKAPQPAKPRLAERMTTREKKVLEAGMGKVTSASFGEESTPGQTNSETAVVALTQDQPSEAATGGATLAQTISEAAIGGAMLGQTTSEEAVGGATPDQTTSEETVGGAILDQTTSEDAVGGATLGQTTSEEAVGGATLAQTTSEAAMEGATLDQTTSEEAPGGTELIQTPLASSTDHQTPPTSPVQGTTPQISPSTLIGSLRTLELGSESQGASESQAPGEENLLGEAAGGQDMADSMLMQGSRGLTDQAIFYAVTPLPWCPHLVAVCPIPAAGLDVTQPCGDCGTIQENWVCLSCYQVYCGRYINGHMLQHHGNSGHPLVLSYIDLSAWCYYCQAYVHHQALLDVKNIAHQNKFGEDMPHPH
In short: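 Recombinant HDAC6 with compound and Ac-GAK(Ac)-AMC substrate ([…]), 37° C. for 30 min, then developed with trypsin plus TSA for 15 min at room temperature. IC50 from curve fitting.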

[4] = brain, 2 mg/kg IV, read-out: Brain drug concentration
[5] = brain, 10 mg/kg PO, read-out: Brain drug concentration
[6] = plasma, 2 mg/kg IV, read-out: Blood drug concentration
[7] = plasma, 10 mg/kg PO, read-out: Blood drug concentration

SMILES	concentration at 1 h [1, 4]	concentration at 4 h [1, 4]	concentration at 1 h [1, 5]	concentration at 4 h [1, 5]	Kp at 1 h ([1]; 2 mg/kg IV)	Kp at 4 h ([1]; 2 mg/kg IV)	Kp at 1 h ([1]; 10 mg/kg PO)	Kp at 4 h ([1]; 10 mg/kg PO)	concentration at 1 h [1, 6]	concentration at 4 h [1, 6]	concentration at 1 h [1, 7]	concentration at 4 h [1, 7]	EC50 [2]	IC50 [3]
O=C(N[C@@H]1CCCC[C@H]1N1Cc2ccc(-c3nnc(C(F)F)o3)cc2S1(=O)=O)C(F)F [Compound 2]	268 ng/mL	149 ng/mL	882 ng/mL	435 ng/mL	0.26	0.25	0.18	0.15	1090 ng/mL	595 ng/mL	4990 ng/mL	2830 ng/mL	202 ± 115 nM	–
O=C(N[C@H]1[C@H](N2Cc3ccc(-c4nnc(C(F)F)o4)cc3S2(=O)=O)CCCC1(F)F)C(F)F [Compound 61]	–	–	–	–	–	–	–	–	–	–	–	–	–	63 nM
CC(F)(F)C(=O)N[C@@H]1CCCC[C@H]1N1Cc2ccc(-c3nnc(C(F)F)o3)cc2S1(=O)=O [Compound 1]	285 ng/mL	161 ng/mL	759 ng/mL	373 ng/mL	0.29	0.36	0.18	0.15	986 ng/mL	453 ng/mL	4270 ng/mL	2500 ng/mL	393 ± 192 nM	59 nM
